In one data set the test system is A2780/ADR cells. The experiment in a line: Cell viability assay (Alamar Blue, 72 hours), MDR line. The format is cell-based, human. The conditions noted are these: paired parental and MDR tumour cell lines (A2780-A2780/ADR, MES-SA-MES-SA/Dx5). The text has this: In vitro cell viability assays have been used to measure the effect of drug accumulation in paired parental and drug resistant tumour cell lines. The pairs used are the human ovarian carcinoma A2780 line with its MDR counterpart A2780/ADR and the human uterine sarcoma MES-SA line with its MDR counterpart MES-SA/Dx5 [Wesolowska O., et al. (2005) Anticancer Res., 25, 383-389].
Method: Cultivated human tumour cells of the ovarian cell line A2780 and its doxorubicin-resistant pair, A2780/ADR and the uterine cell line MES-SA and its doxorubicin-resistant pair, MES-SA/DX5 were seeded at 3000 cells per well in Nunc 96-well tissue culture plates, 100 μl per well in DMEM media containing 10% foetal calf serum and penicillin/streptomycin. […] The plates were then read at 544/595 nm.
The amount of Alamar Blue reagent reacted represents the metabolic activity of the cells. […] The values were calculated from the average of three individual measurements with blank correction (medium-only control).
The assay was performed on the Biomek FxP, automation platform from Beckman Coulter. The plates were read on the Paradigm plate reader supplied by Beckman Coulter. Asymmetry ratios were calculated as the IC50 value of the compound in the drug resistant cells divided by the IC50 value in the parental cells. […]

Data set [1] can be described thus: Pharmacokinetics in fasted conscious CD-1 mice (iv and oral). The format is in vivo. The conditions noted are these: compared to compounds A-G. The procedure:
Preliminary investigations of the pharmacokinetics of selected compounds were carried out in fasted conscious CD-1 mice (25-30 g). Compounds were dosed as 1 mg/kg by intravenous administration or 5-10 mg/kg by oral route. Twenty one male mice per administration route (n=3 mice per time point) received dose solution by single bolus injection in the tail vein or by oral gavage. Blood samples were collected by cardiac puncture at 5, 15, 30, 60, 120, 240 and 360 min following iv administration and at 30, 60, 120, 240, 360, 480 and 1440 min following oral administration. Blood samples were collected into tubes containing the anti-coagulant lithium heparin, mixed and placed promptly on crushed ice. Plasma was derived from whole blood by centrifugation, frozen and stored at −80° C. prior to analysis. Plasma concentrations were determined by liquid chromatography-tandem mass spectrometry in electrospray positive mode (ESI LC/MS/MS) using calibration curves prepared in the appropriate matrix. The lower level of quantification (LLOQ) in all cases was ca. 5 ng/mL. Plasma concentration-time data was processed using the computer program WinNonLin version 5.2 from which areas under the plasma concentration-time curve (AUCall) were calculated by non-compartmental analysis using Model 201 (IV-bolus Input) or Model 200 (Extravascular Input).
FIG. 1 plots the area under the curve (AUC) for plasma concentration vs time for each compound tested. The dosing vehicle across these experiments remained constant (intravenous=citrate buffer pH 3, 1 mL/kg; oral=DMA/PEG400/10 mM Tartrate buffer, pH 4 (1:3:6), 5 ml/kg). FIG. 2 represents the same data in the form of oral bioavailability (% F) for each compound.

For the next data set, the target named is AA (aurora kinase A) (Homo sapiens (Human), UniProt O14965). Kind of data set: AA kinase inhibition (Table 1). The conditions noted are these: Table 2; read-out: AurA IC50. The format is biochemical.
Chain of AA (aurora kinase A) (O14965 whole entry, species assumed): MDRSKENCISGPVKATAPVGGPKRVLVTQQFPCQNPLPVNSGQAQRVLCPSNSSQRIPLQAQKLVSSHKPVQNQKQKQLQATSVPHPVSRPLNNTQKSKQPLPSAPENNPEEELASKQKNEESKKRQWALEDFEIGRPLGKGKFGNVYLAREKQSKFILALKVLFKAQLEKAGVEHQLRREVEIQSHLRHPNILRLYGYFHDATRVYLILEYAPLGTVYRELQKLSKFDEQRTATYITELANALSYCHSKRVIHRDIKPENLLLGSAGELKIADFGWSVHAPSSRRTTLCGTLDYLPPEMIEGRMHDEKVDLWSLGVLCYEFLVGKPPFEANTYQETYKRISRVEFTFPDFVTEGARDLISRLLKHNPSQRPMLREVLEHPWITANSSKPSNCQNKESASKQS

The structures appear in SMILES notation. Bounds are passed on as bounds.

The source of these data is US9133199B2, “Pyrimidine derivatives as protein kinase inhibitors” (Cyclacel Limited, priority 2007, dated 2015).

Take `COc1cc(C(=O)N[C@H]2CC[C@H](N3CCN(CC4CC4)CC3)CC2)ccc1Nc1ncc2c(n1)N(C1CCCC1)CC1(CC1)C(=O)N2C` [Compound 371, 4-(9′-cyclopentyl-5′-methyl-6′-oxo-5′,6′,8′,9′-tetrahydrospiro[cyclopropane-1,7′-pyrimido[4,5-b][1,4]diazepine]-2′-ylamino)-N-((trans)-4-(4-(cyclopropylmethyl)piperazin-1-yl)cyclohexyl)-3-methoxybenzamide]: in the data set with A2780/ADR cells, the “cellular efflux (MDR/parental cell asymmetry)” value is listed as “low cellular efflux”. Moreover, in data set [1], the “oral bioavailability (% F)” value is recorded as “markedly superior”. Also, the “systemic exposure (AUC of plasma concentration vs time)” value in data set [1] (iv 1 mg/kg and oral 5-10 mg/kg) is on record as “markedly superior”.

Regarding `COc1cc(C(=O)N[C@H]2CC[C@H](N3CCN(CC4CC4)CC3)CC2)ccc1Nc1ncc2c(n1)N(C1CCCC1)CC(C)(C)C(=O)N2C` [Compound 372, 4-(9-cyclopentyl-5,7,7-trimethyl-6-oxo-6,7,8,9-tetrahydro-5H-pyrimido[4,5-b][1,4]diazepin-2-ylamino)-N-((trans)-4-(4-(cyclopropylmethyl)piperazin-1-yl)cyclohexyl)-3-methoxybenzamide], in the data set with A2780/ADR cells, the “cellular efflux (MDR/parental cell asymmetry)” value was “low cellular efflux”.

Turning to `CN1C(=O)CCN(C2CCCC2)c2nc(Nc3cccc4cc[nH]c34)ncc21` [Compound 98, 9-Cyclopentyl-2-(1H-indol-7-ylamino)-5-methyl-5,7,8,9-tetra-hydro-pyrimido[4,5-b] [1,4]diazepin-6-one], the IC50 (as a rule, the midpoint of a concentration-inhibition curve) at AA (aurora kinase A) was < 1 µM.

For the compound `CN1C(=O)CCN2CCC(=O)Nc3cccc(c3)Nc3ncc1c2n3` [Compound 282], the IC50 at AA (aurora kinase A) is < 10 µM.
